Laboratory results as given in PubChem BioAssay AID248 (DTP/NCI, 2004).
Where “and” joins values, the source holds several entries; their conditions need not be identical. Identical values can stand only once. Toxic doses and inconclusive results are not listed. No stated cut-off is given here; in the data, active means T/C of 150% or more; inactive means T/C below 125%.

Test system: L1210 leukemia ip in BDF1 mice, survival T/C
Assay: NCI In Vivo Anticancer Drug Screen. Data for tumor model L1210 Leukemia (intraperitoneal) in B6D2F1 (BDF1) mice
Settings: endpoint: mean survival time, higher = longer survival
Method in brief: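 Ratio derived from survival: compound-dosed mice over vehicle-dosed mice, all bearing a transplantable tumor.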

[1] = dose: 100.0 mg/kg/injection, schedule: Q01DX009 (ip), vehicle: saline
[2] = dose: 100.0 mg/kg/injection, schedule: Q04DX003 (ip), vehicle: saline
[3] = dose: 200.0 mg/kg/injection, schedule: Q01DX009 (ip), vehicle: saline
[4] = dose: 200.0 mg/kg/injection, schedule: Q04DX003 (ip), vehicle: saline
[5] = dose: 400.0 mg/kg/injection, schedule: Q01DX009 (ip), vehicle: saline
[6] = dose: 400.0 mg/kg/injection, schedule: Q04DX003 (ip), vehicle: saline
[7] = dose: 100.0 mg/kg/injection, schedule: Q01DX009 (ip), vehicle: Klucel (hydroxypropylcellulose) (HPC)
[8] = dose: 100.0 mg/kg/injection, schedule: Q04DX003 (ip), vehicle: Klucel (hydroxypropylcellulose) (HPC)
[9] = dose: 200.0 mg/kg/injection, schedule: Q01DX009 (ip), vehicle: Klucel (hydroxypropylcellulose) (HPC)
[10] = dose: 200.0 mg/kg/injection, schedule: Q04DX003 (ip), vehicle: Klucel (hydroxypropylcellulose) (HPC)
[11] = dose: 400.0 mg/kg/injection, schedule: Q01DX009 (ip), vehicle: Klucel (hydroxypropylcellulose) (HPC)
[12] = dose: 400.0 mg/kg/injection, schedule: Q04DX003 (ip), vehicle: Klucel (hydroxypropylcellulose) (HPC)
[13] = dose: 100.0 mg/kg/injection, schedule: Q01DX001 (ip), vehicle: Klucel (hydroxypropylcellulose) (HPC)
[14] = dose: 200.0 mg/kg/injection, schedule: Q01DX001 (ip), vehicle: Klucel (hydroxypropylcellulose) (HPC)
[15] = dose: 100.0 mg/kg/injection, schedule: Q01DX001 (ip), vehicle: saline
[16] = dose: 200.0 mg/kg/injection, schedule: Q01DX001 (ip), vehicle: saline
[17] = dose: 400.0 mg/kg/injection, schedule: Q01DX001 (ip), vehicle: saline
[18] = dose: 50.0 mg/kg/injection, schedule: Q01DX001 (ip), vehicle: carboxymethylcellulose (CMC)
[19] = dose: 100.0 mg/kg/injection, schedule: Q01DX001 (ip), vehicle: carboxymethylcellulose (CMC)
[20] = dose: 200.0 mg/kg/injection, schedule: Q01DX001 (ip), vehicle: carboxymethylcellulose (CMC)
[21] = dose: 400.0 mg/kg/injection, schedule: Q01DX001 (ip), vehicle: carboxymethylcellulose (CMC)
[22] = dose: 100.0 mg/kg/injection, schedule: Q01DX009 (ip), vehicle: saline with Tween-80
[23] = dose: 200.0 mg/kg/injection, schedule: Q01DX009 (ip), vehicle: saline with Tween-80

Measured: T/C

C/C(CCC(=O)O)=N/O
inactive: [1] 101 % of control | [2] 95 % of control | [3] 97 % of control | [4] 100 % of control | [5] 105 % of control | [6] 101 % of control

CCOC(=O)C(Cc1ccccc1)NP(=O)(OCCCl)OCCCl (configuration not stated)
inactive: [7] 104 % of control | [8] 95 % of control | [9] 96 % of control | [10] 95 % of control | [11] 101 % of control | [12] 87 % of control

CCOC(=O)c1[nH]c(-c2ccccc2)c(C=O)c1-c1ccccc1
inactive: [13] 100 % of control | [14] 100 % of control | dose: 400.0 mg/kg/injection, schedule: Q01DX001 (ip), vehicle: Klucel (hydroxypropylcellulose) (HPC) 100 % of control

O=[N+]([O-])c1cccc(C=Nc2cc([N+](=O)[O-])ccc2O)c1
inactive: [7] 88 % of control | [9] 93 % of control

Cc1nc(N)c2nc(-c3ccc(N(CCCl)CCCl)cc3)c(N)nc2n1
inactive: [15] 96 % of control | [16] 96 % of control | [17] 96 % of control

COc1ccc(/C(C#N)=C2C=C/C(=N/O)c3ccccc3\2)cc1
inactive: [18] 92 % of control | [19] 92 % of control | [20] 87 % of control | [21] 89 % of control

CC(=O)N1CCc2nc3ccccc3cc21
inactive: dose: 37.5 mg/kg/injection, schedule: Q01DX009 (ip), vehicle: saline with Tween-80 96 % of control | dose: 37.5 mg/kg/injection, schedule: Q04DX003 (ip), vehicle: saline 104 % of control | dose: 75.0 mg/kg/injection, schedule: Q01DX001 (ip), vehicle: saline 95 % of control | dose: 75.0 mg/kg/injection, schedule: Q01DX009 (ip), vehicle: saline with Tween-80 94 % of control | dose: 75.0 mg/kg/injection, schedule: Q04DX003 (ip), vehicle: saline 104 % of control | dose: 150.0 mg/kg/injection, schedule: Q01DX001 (ip), vehicle: saline 101 % of control | dose: 150.0 mg/kg/injection, schedule: Q01DX009 (ip), vehicle: saline with Tween-80 88 % of control | dose: 150.0 mg/kg/injection, schedule: Q04DX003 (ip), vehicle: saline 106 % of control

O=c1c2ccccc2cc2ccccn12
inactive: [7] 100 % of control | [8] 95 % of control | [9] 94 % of control | [10] 97 % of control | [11] 92 % of control | [12] 97 % of control

COC(=O)C(=C(c1ccccc1)c1ccccc1)c1ccccc1C(=O)O
inactive: [22] 90 % of control | dose: 100.0 mg/kg/injection, schedule: Q04DX003 (ip), vehicle: saline with Tween-80 101 % of control | [23] 88 % of control | dose: 200.0 mg/kg/injection, schedule: Q04DX003 (ip), vehicle: saline with Tween-80 93 % of control | dose: 400.0 mg/kg/injection, schedule: Q01DX009 (ip), vehicle: saline with Tween-80 96 % of control | dose: 400.0 mg/kg/injection, schedule: Q04DX003 (ip), vehicle: saline with Tween-80 92 % of control

COC1COC(OC)C(OC)C1OC (configuration not stated)
inactive: dose: 25.0 mg/kg/injection, schedule: Q04DX002 (ip), vehicle: saline 87 % of control | dose: 50.0 mg/kg/injection, schedule: Q04DX002 (ip), vehicle: saline 104 % of control | dose: 100.0 mg/kg/injection, schedule: Q04DX002 (ip), vehicle: saline 90 % of control

COC(=O)CC(=O)C(Cl)C(=O)OC (configuration not stated)
inactive: dose: 50.0 mg/kg/injection, schedule: Q01DX009 (ip), vehicle: saline 97 % of control | [1] 108 % of control

C=CCNC(=O)c1ccc[n+](CC(=O)NCCCCCCCCCC)c1
inactive: dose: 12.5 mg/kg/injection, schedule: Q04DX003 (ip), vehicle: saline with Tween-80 95 % of control | dose: 25.0 mg/kg/injection, schedule: Q04DX003 (ip), vehicle: saline with Tween-80 101 % of control | dose: 50.0 mg/kg/injection, schedule: Q04DX003 (ip), vehicle: saline with Tween-80 94 % of control

Cc1ccc(NC(=O)OCCOc2cc(C)c(Cl)c(C)c2)cc1[N+](=O)[O-]
inactive: dose: 50.0 mg/kg/injection, schedule: Q01DX009 (ip), vehicle: saline with Tween-80 87 % of control | [22] 101 % of control | [23] 90 % of control

Cc1cc[n+]([O-])cc1
inactive: [15] 100 % of control | [1] 98 % of control | [2] 94 % of control | [16] 98 % of control | [3] 101 % of control | [4] 102 % of control | [17] 98 % of control | [5] 98 % of control | [6] 98 % of control

O=C1c2ccccc2C(=O)N1CCCCCCCCCCCCCCN1C(=O)c2ccccc2C1=O
inactive: [13] 94 % of control | [14] 94 % of control

O=c1ssc(Nc2ccccc2)c1Cl
inactive: dose: 100.0 mg/kg/injection, schedule: Q04DX002 (ip), vehicle: Klucel (hydroxypropylcellulose) (HPC) 93 % of control | dose: 200.0 mg/kg/injection, schedule: Q04DX002 (ip), vehicle: Klucel (hydroxypropylcellulose) (HPC) 100 % of control | dose: 400.0 mg/kg/injection, schedule: Q04DX002 (ip), vehicle: Klucel (hydroxypropylcellulose) (HPC) 104 % of control

CC1(C)N=C(N)N=C(N)N1c1ccc(CCCC(=O)Nc2cccc(S(=O)(=O)F)c2)cc1
inactive: [15] 105 % of control and 89 % of control | [16] 103 % of control

O=C(O)c1c(Br)c(Br)c(Br)c(Br)c1C(=O)Nc1ccc(Cl)cc1C(F)(F)F
inactive: [7] 101 % of control | [9] 112 % of control | [11] 102 % of control

c1ccc(Sc2ncnc3nc[nH]c23)nc1
inactive: dose: 267.0 mg/kg/injection, schedule: Q01DX001 (ip), vehicle: saline with Tween-80 110 % of control

CC(=O)OC1CCSc2ccccc21 (configuration not stated)
inactive: [18] 95 % of control | [19] 93 % of control | [20] 104 % of control | [21] 90 % of control

CCCSc1ncnc2nc[nH]c12
inactive: dose: 31.3 mg/kg/injection, schedule: Q01DX009 (ip), vehicle: saline 93 % of control and 100 % of control | dose: 62.5 mg/kg/injection, schedule: Q01DX009 (ip), vehicle: saline 97 % of control and 121 % of control | dose: 125.0 mg/kg/injection, schedule: Q01DX009 (ip), vehicle: saline 121 % of control | dose: 250.0 mg/kg/injection, schedule: Q01DX009 (ip), vehicle: saline 100 % of control

CCNC(=O)Nc1ccc(C)cc1C
inactive: [7] 94 % of control | [8] 96 % of control | [9] 103 % of control | [10] 96 % of control | [11] 105 % of control | [12] 95 % of control

CCCCCCCCCCCCCCCc1ccc([N+](=O)[O-])c(O)c1
inactive: dose: 100.0 mg/kg/injection, schedule: Q04DX003 (ip), vehicle: other 98 % of control | dose: 200.0 mg/kg/injection, schedule: Q04DX003 (ip), vehicle: other 101 % of control | dose: 400.0 mg/kg/injection, schedule: Q04DX003 (ip), vehicle: other 101 % of control
